Reference: ChEMBL document CHEMBL6078677, “Discovery and optimization of tetrahydroacridine derivatives as a novel class of antibiotics against multidrug-resistant Gram-positive pathogens by targeting type I signal peptidase and disrupting bacterial membrane” (Eur J Med Chem, 2025)
In brackets after ≈: the same amount, converted by molar mass. Numbered stars: 1 amine (or outer) side, 2 acyl side, 3 side chain; on linkers, the order of the positions; unused ones are H or OH. Bridge positions count the residues as written; N and C are the ends. Square brackets hold non-standard residues; d marks the D form. Side chains are listed from the residue outwards. Peptide text beside a SMILES is read from it. * marks the point of attachment. X1 = C[C@@H](O)[C@H](CN([C@@H](CCN)C(=O)[*:2])[*:1])N[*:3]; Octanoyl(6-Me) = CCC(C)CCCCC(=O)*; Dab = NCC[C@H](N)C(=O)O

How the values were obtained:
[1] = tested on: Enterococcus faecalis; test: Antimicrobial activity against Enterococcus faecalis J2 harboring erythromycin-resistance rRNA methylase B and oxazolidinone phenicol transferable resistance gene assessed as inhibition of visible growth of bacteria incubated for 20 hrs by broth microdilution method; format: functional
[2] = tested on: Acinetobacter baumannii; test: Antimicrobial activity against Acinetobacter baumannii 7979 assessed as inhibition of visible growth of bacteria incubated for 20 hrs by broth microdilution method; format: functional
[3] = tested on: Acinetobacter baumannii; test: Antimicrobial activity against Acinetobacter baumannii AB11 assessed as inhibition of visible growth of bacteria incubated for 20 hrs by broth microdilution method; format: functional
[4] = tested on: Streptococcus suis; test: Antimicrobial activity against Streptococcus suis P1/7 assessed as inhibition of visible growth of bacteria incubated for 20 hrs by broth microdilution method; format: functional
[5] = tested on: Streptococcus suis; test: microbe, parasite or virus in culture; format: functional; settings: SH0918, time 20 hrs
Description: Antimicrobial activity against Streptococcus suis SH0918 harboring erythromycin-resistance rRNA methylase B, tetracycline efflux protein O and oxazolidinone phenicol transferable resistance gene assessed as inhibition of visible growth of bacteria incubated for 20 hrs by broth microdilution method

[6] = tested on: Enterococcus faecalis; test: microbe, parasite or virus in culture; format: functional; settings: SF23-1, time 20 hrs
Description: Antimicrobial activity against Enterococcus faecalis SF23-1 harboring erythromycin-resistance rRNA methylase B, tetracycline efflux protein L and chloramphenicol-florfenicol resistance methylase assessed as inhibition of visible growth of bacteria incubated for 20 hrs by broth microdilution method

[7] = tested on: Staphylococcus aureus; test: Antimicrobial activity against Staphylococcus aureus ATCC 29213 assessed as inhibition of visible growth of bacteria incubated for 20 hrs by broth microdilution method; format: functional
[8] = tested on: Staphylococcus aureus; test: Antimicrobial activity against Staphylococcus aureus YZSA-24 harboring erythromycin resistance rRNA methylase C and methicillin resistance gene resistance locus assessed as inhibition of visible growth of bacteria incubated for 20 hrs by broth microdilution method; format: functional
[9] = tested on: Pseudomonas aeruginosa; test: Antimicrobial activity against Pseudomonas aeruginosa PA14 assessed as inhibition of visible growth of bacteria incubated for 20 hrs by broth microdilution method; format: functional
[10] = tested on: Enterococcus faecium; test: Antimicrobial activity against Enterococcus faecium HFY01 assessed as inhibition of visible growth of bacteria incubated for 20 hrs by broth microdilution method; format: functional
[11] = tested on: Streptococcus agalactiae; test: Antimicrobial activity against Streptococcus agalactiae DL03 harboring erythromycin-resistance rRNA methylase B assessed as inhibition of visible growth of bacteria incubated for 20 hrs by broth microdilution method; format: functional
[12] = tested on: Pseudomonas aeruginosa; test: Antimicrobial activity against Pseudomonas aeruginosa PA01 assessed as inhibition of visible growth of bacteria incubated for 20 hrs by broth microdilution method; format: functional
[13] = tested on: Klebsiella pneumoniae; test: Antimicrobial activity against Klebsiella pneumoniae 9-1 assessed as inhibition of visible growth of bacteria incubated for 20 hrs by broth microdilution method; format: functional
[14] = tested on: Enterococcus faecium; test: Antimicrobial activity against Enterococcus faecium QF31 harboring erythromycin resistance rRNA methylase B and chloramphenicol-florfenicol resistance methylase assessed as inhibition of visible growth of bacteria incubated for 20 hrs by broth microdilution method; format: functional
[15] = tested on: Staphylococcus aureus; test: Antimicrobial activity against Staphylococcus aureus YZSA-15 harboring erythromycin resistance rRNA methylase C and vancomycin resistance locus assessed as inhibition of visible growth of bacteria incubated for 20 hrs by broth microdilution method; format: functional
[16] = tested on: Enterococcus faecalis; test: Antimicrobial activity against Enterococcus faecalis ES01 harboring erythromycin-resistance rRNA methylase B and vanB-type vancomycin-resistance locus assessed as inhibition of visible growth of bacteria incubated for 20 hrs by broth microdilution method; format: functional
[17] = tested on: Streptococcus pyogenes; test: Antimicrobial activity against Streptococcus pyogenes DL02 harboring erythromycin-resistance rRNA methylase B assessed as inhibition of visible growth of bacteria incubated for 20 hrs by broth microdilution method; format: functional
[18] = tested on: Staphylococcus aureus; test: microbe, parasite or virus in culture; format: functional; settings: M92-1, time 20 hrs
Description: Antimicrobial activity against Staphylococcus aureus M92-1 harboring erythromycin resistance rRNA methylase B, tetracycline efflux protein L and oxazolidinone-phenicol transferable resistance gene assessed as inhibition of visible growth of bacteria incubated for 20 hrs by broth microdilution method

[19] = tested on: Staphylococcus aureus; test: microbe, parasite or virus in culture; format: functional; settings: M147-2, time 20 hrs
Description: Antimicrobial activity against Staphylococcus aureus M147-2 harboring erythromycin resistance rRNA methylase B, tetracycline efflux protein L and chloramphenicol-florfenicol resistance methylase assessed as inhibition of visible growth of bacteria incubated for 20 hrs by broth microdilution method

[20] = tested on: Salmonella enteritidis; test: Antimicrobial activity against Salmonella enteritis S1 assessed as inhibition of visible growth of bacteria incubated for 20 hrs by broth microdilution method; format: functional, Salmonella enterica subsp. enterica serovar Enteritidis; settings: Salmonella enterica
[21] = tested on: Enterococcus faecium; test: Antimicrobial activity against Enterococcus faecium MC38 harboring erythromycin resistance rRNA methylase B and oxazolidinone-phenicol transferable resistance gene assessed as inhibition of visible growth of bacteria incubated for 20 hrs by broth microdilution method; format: functional
[22] = tested on: Enterococcus faecalis; test: Antimicrobial activity against Enterococcus faecalis JH2-2 assessed as inhibition of visible growth of bacteria incubated for 20 hrs by broth microdilution method; format: functional
[23] = tested on: Staphylococcus aureus; test: Antimicrobial activity against Staphylococcus aureus YZSA-21 harboring erythromycin resistance rRNA methylase C assessed as inhibition of visible growth of bacteria incubated for 20 hrs by broth microdilution method; format: functional
[24] = tested on: Escherichia coli; test: Antimicrobial activity against Escherichia coli ATCC 25922 assessed as inhibition of visible growth of bacteria incubated for 20 hrs by broth microdilution method; format: functional

Row | Structure (SMILES) | MIC [1] [µg/mL] | MIC [2] [µg/mL] | MIC [3] [µg/mL] | MIC [4] [µg/mL] | MIC [5] [µg/mL] | MIC [6] [µg/mL] | MIC [7] [µg/mL] | MIC [8] [µg/mL] | MIC [9] [µg/mL] | MIC [10] [µg/mL] | MIC [11] [µg/mL] | MIC [12] [µg/mL] | MIC [13] [µg/mL] | MIC [14] [µg/mL] | MIC [15] [µg/mL] | MIC [16] [µg/mL] | MIC [17] [µg/mL] | MIC [20] [µg/mL] | MIC [21] [µg/mL] | MIC [22] [µg/mL] | other results
1 | CNC(C)[C@@H]1CC[C@@H](N)[C@@H](O[C@H]2[C@H](O)[C@@H](O[C@H]3OC[C@](C)(O)[C@H](NC)[C@H]3O)[C@H](N)C[C@@H]2N)O1.CN[C@@H]1[C@@H](O)[C@@H](O[C@@H]2[C@@H](O)[C@H](O[C@H]3O[C@H](C(C)N)CC[C@H]3N)[C@@H](N)C[C@H]2N)OC[C@]1(C)O.CN[C@@H]1[C@@H](O)[C@@H](O[C@@H]2[C@@H](O)[C@H](O[C@H]3O[C@H](CN)CC[C@H]3N)[C@@H](N)C[C@H]2N)OC[C@]1(C)O (some centres not stated) | 8 | > 32 | < 0.06 | 4 | > 32 | 8 | 1 | 0.5 | < 0.06 | < 0.06 | 16 | 0.125 | 0.5 | > 32 | 0.5 | > 32 | 1 | 0.25 | > 32 | 4 | MIC [18]: > 32 µg/mL; MIC [19]: 0.5 µg/mL; MIC [23]: 0.5 µg/mL
2 | CC(C)CCCCC(=O)N[C@@H](CCN)C(=O)N[C@@H](CN[C@@H](CCN)C(=O)N[C@H]1CCNC(=O)[C@H]([C@@H](C)O)NC(=O)[C@H](CCN)NC(=O)[C@H](CCN)NC(=O)[C@H](CC(C)C)NC(=O)[C@@H](CC(C)C)NC(=O)[C@H](CCN)NC1=O)[C@@H](C)O.CCC(C)CCCCC(=O)N[C@@H](CCN)C(=O)N[C@@H](CN[C@@H](CCN)C(=O)N[C@H]1CCNC(=O)[C@H]([C@@H](C)O)NC(=O)[C@H](CCN)NC(=O)[C@H](CCN)NC(=O)[C@H](CC(C)C)NC(=O)[C@@H](CC(C)C)NC(=O)[C@H](CCN)NC1=O)[C@@H](C)O (stereo partly drawn) (H-[X1]([Dab-Octanoyl(6-Me)])[Dab][Dab][dL]L[Dab][Dab]T; lactam 2-C) | – | < 0.06 | 8 | – | – | – | – | – | < 0.06 | – | – | 0.125 | 0.5 | – | – | – | – | 0.5 | – | – | MIC [24]: 1 µg/mL
3 | CC1(C)S[C@@H]2[C@H](NC(=O)[C@H](N)c3ccccc3)C(=O)N2[C@H]1C(=O)O [AMPICILLIN] | > 32 | > 32 | < 0.06 | ≤ 0.5 | – | – | 1 (≈ 2.86 µM) | > 32 | > 32 | 1 (≈ 2.86 µM) | 0.5 (≈ 1.43 µM) | > 32 | > 32 | 16 (≈ 45.8 µM) | 2 (≈ 5.72 µM) | 16 (≈ 45.8 µM) | 0.5 (≈ 1.43 µM) | 32 (≈ 91.6 µM) | 32 (≈ 91.6 µM) | 16 (≈ 45.8 µM) | MIC [23]: 1 µg/mL (≈ 2.86 µM)
4 | C[C@H]1[C@H](NC(=O)/C(=N\OC(C)(C)C(=O)O)c2csc(N)n2)C(=O)N1S(=O)(=O)O [AZTREONAM] | – | > 32 | > 32 | – | – | – | – | – | 4 (≈ 9.19 µM) | – | – | 2 (≈ 4.59 µM) | 2 (≈ 4.59 µM) | – | – | – | – | 2 (≈ 4.59 µM) | – | – | MIC [24]: 0.25 µg/mL (≈ 0.574 µM)
5 | O=C(O)c1cn(C2CC2)c2cc(N3CCNCC3)c(F)cc2c1=O [CIPROFLOXACIN] | 0.5 (≈ 1.51 µM) | – | – | 0.125 (≈ 0.377 µM) | 16 (≈ 48.3 µM) | 16 (≈ 48.3 µM) | 1 (≈ 3.02 µM) | 4 (≈ 12.1 µM) | – | 1 (≈ 3.02 µM) | 16 (≈ 48.3 µM) | – | – | 2 (≈ 6.04 µM) | 0.25 (≈ 0.754 µM) | > 32 | 1 (≈ 3.02 µM) | – | 8 (≈ 24.1 µM) | 0.5 (≈ 1.51 µM) | MIC [23]: 0.5 µg/mL (≈ 1.51 µM)
6 | CC[C@H]1OC(=O)[C@H](C)[C@@H](O[C@H]2C[C@@](C)(OC)[C@@H](O)[C@H](C)O2)[C@H](C)[C@@H](O[C@@H]2O[C@H](C)C[C@H](N(C)C)[C@H]2O)[C@](C)(O)C[C@@H](C)C(=O)[C@H](C)[C@@H](O)[C@]1(C)O [ERYTHROMYCIN] | > 32 | – | – | 0.125 (≈ 0.17 µM) | > 32 | > 32 | 1 (≈ 1.36 µM) | > 32 | – | 2 (≈ 2.73 µM) | > 32 | – | – | > 32 | > 32 | > 32 | > 32 | – | > 32 | 0.25 (≈ 0.341 µM) | MIC [18]: > 32 µg/mL; MIC [19]: > 32 µg/mL; MIC [23]: > 32 µg/mL
7 | C[C@H]1COc2c(N3CCN(C)CC3)c(F)cc3c(=O)c(C(=O)O)cn1c23 [LEVOFLOXACIN ANHYDROUS] | – | > 32 | 0.125 (≈ 0.346 µM) | – | – | – | – | – | 0.125 (≈ 0.346 µM) | – | – | 0.5 (≈ 1.38 µM) | > 32 | – | – | – | – | 0.5 (≈ 1.38 µM) | – | – | MIC [24]: 0.125 µg/mL (≈ 0.346 µM)
8 | C[C@@H](O)[C@H]1C(=O)N2C(C(=O)O)=C(S[C@@H]3CN[C@H](C(=O)N(C)C)C3)[C@H](C)[C@H]12 [MEROPENEM] | – | > 32 | < 0.06 | – | – | – | – | – | 0.5 (≈ 1.3 µM) | – | – | 0.5 (≈ 1.3 µM) | 4 (≈ 10.4 µM) | – | – | – | – | 0.25 (≈ 0.652 µM) | – | – | MIC [24]: 0.25 µg/mL (≈ 0.652 µM)
9 | CN[C@H](CC(C)C)C(=O)N[C@H]1C(=O)N[C@@H](CC(N)=O)C(=O)N[C@H]2C(=O)N[C@H]3C(=O)N[C@H](C(=O)N[C@H](C(=O)O)c4cc(O)cc(O)c4-c4cc3ccc4O)[C@H](O)c3ccc(c(Cl)c3)Oc3cc2cc(c3O[C@@H]2O[C@H](CO)[C@@H](O)[C@H](O)[C@H]2O[C@H]2C[C@](C)(N)[C@H](O)[C@H](C)O2)Oc2ccc(cc2Cl)[C@H]1O [VANCOMYCIN] | 2 (≈ 1.38 µM) | – | – | < 0.06 | < 0.06 | 2 (≈ 1.38 µM) | – | < 0.06 | – | – | 0.125 (≈ 0.0863 µM) | – | – | – | 16 (≈ 11 µM) | 16 (≈ 11 µM) | < 0.06 | – | – | 2 (≈ 1.38 µM) | –
